# Laboratory results reported in PMC5614969, “High-Affinity Functional Fluorescent Ligands for Human β-Adrenoceptors” (Scientific Reports, 2017).
# Where two headings read alike, the source gives them in different places.
# Legend:
# β2AR [1] = target: T1, β2AR (Homo sapiens, UniProt P07550); experiment: TR-FRET receptor-ligand saturation binding assay, Tag-lite β2AR cells; settings: for binding selectivity β2AR over β1AR: TR-FRET assay, ratio of Kd app; for Kd: β2AR, 2 h at room temperature, read-out: Kd app
# Experimental: (§1) To confirm whether the affinity of carazolol-KK114 (24) is sufficient for the intended imaging experiments and to evaluate its β2/β1AR selectivity, we performed a TR-FRET assay in Tag-lite β1AR or β2AR transfected cells (Cisbio) labeled with Tb^3+ cryptate (Lumi4-Tb) (Fig. 3c)[39]. […] (Fig. 3d, Supplementary Fig. 5b). The high affinities of both fluorescent ligands enabled the imaging experiments.
# K d determination was performed on Tag-lite β1AR (Cisbio, Cat. No. C1TT1BETA1) or β2AR (Cisbio, Cat. No. C1TT1BETA2) Tb^3+ cryptate labeled transfected cells. The β1AR or β2AR cells labeled with SNAP-Terbium interact with the specific ligand labeled with the corresponding fluorophore. The fraction of bound ligand is proportional to the FRET signal. Donor Tb^3+ cryptate: exc. 340 nm, em. 490 nm, 546 nm, 583 nm, 620 nm; acceptor KK114: exc. 630 nm, em. 655 nm. The cells were thawed and suspended in 4.5 ml Tag-lite buffer (Cisbio, Cat. No. LABMED) according to the product information and transferred to half-area white polystyrene 96 well plates (Sigma, Cat. No. CLS3693) by 20 µl per well. 20 µl of a fluorescent probe or control compound in Tag-lite buffer was added to each well and incubated for 2 h at room temperature (20 °C) before readout. FRET readout was performed on a multiwell plate reader Spark 20 M (Tecan) at room temperature. […] All probe and control compound dilutions were prepared in DMSO, so that the final DMSO concentration was kept constant throughout the titration series. The ratio of the acceptor and donor emission signals was calculated for each individual well using equation (3):3 Ratio=Signal655nm−BackgroundSignal/Signal620nm−BackgroundSignal
# Luminescence background signal was measured in wells containing 40 µl of Tag-lite buffer only. Specific binding was calculated by subtracting nonspecific binding ratio from total binding ratio at each fluorescent ligand concentration. K d ^app is determined by fitting data using GraphPad Prism 6 to one site specific binding with Hill slope equation (4):4 Specificsingalratio=A∗[probe]^h/(Kdapp)^h+[probe]^h
# A is amplitude of specific signal ratio, [probe] - probe concentration, K d ^app - the ligand concentration needed to achieve a half-maximum binding at equilibrium, h - the Hill slope.
# β1AR = β1AR (Homo sapiens, UniProt P08588); experiment: TR-FRET receptor-ligand saturation binding assay, Tag-lite β1AR cells; settings: 2 h at room temperature, read-out: Kd app
# Experimental: as §1
# K d determination was performed on Tag-lite β1AR (Cisbio, Cat. No. C1TT1BETA1) or β2AR (Cisbio, Cat. No. C1TT1BETA2) Tb^3+ cryptate labeled transfected cells. The β1AR or β2AR cells labeled with SNAP-Terbium interact with the specific ligand labeled with the corresponding fluorophore. […] 20 µl of a fluorescent probe or control compound in Tag-lite buffer was added to each well and incubated for 2 h at room temperature (20 °C) before readout. FRET readout was performed on a multiwell plate reader Spark 20 M (Tecan) at room temperature. […] The ratio of the acceptor and donor emission signals was calculated for each individual well using equation (3):3 Ratio=Signal655nm−BackgroundSignal/Signal620nm−BackgroundSignal
# Luminescence background signal was measured in wells containing 40 µl of Tag-lite buffer only. Specific binding was calculated by subtracting nonspecific binding ratio from total binding ratio at each fluorescent ligand concentration. […]
# [2] = pH dependence of ligand fluorescence; format: physicochemical
# Experimental: pH dependence of βAR ligands fluorescence were recorded on a multiwell plate reader Spark 20 M (Tecan) in 96-well glass bottom plates (MatTek Corporation; Cat. No. PBK96G-1.5-5-F) in PBS solutions (pH 4.7–8.0) at room temperature (25 °C). The 100x stock solutions of ligands were prepared in DMSO.
# β2AR-YFP fusion protein = target: T2, β2AR-YFP fusion protein (Homo sapiens, UniProt P07550); experiment: Confocal imaging of living U2OS cells expressing β2AR-YFP (staining, internalization, competitive displacement, no-wash); format: cell-based; settings: 90 min, 100 nM carazolol-KK114 (24), 5 nM ab118171, no washing
# T2 construct: host or cells: U2OS
# β2AR [3] = target: T1, β2AR; experiment: cAMP FRET sensor assay, competitive displacement of isoprenaline by antagonists in HEK293 cells; format: cell-based
# Experimental: The culture was maintained by subculturing the cells every 4 to 5 days using the standard trypsinization procedure. Before measurements, cells were trypsinated and transferred in a 96-well glass bottom plate (MatTek Corporation; Cat. No. P96GC-1.5–5-F) to contain 10,000–30,000 cells per well in 200 µL of DMEM media. After 24 h incubation in 5% CO2 at 37 °C, the cells were washed with HBSS pH 7.2 (200 µL), and the wells were filled with 200 µL HBSS. The DMSO stock solutions of the fluorescent probes were diluted 5,000 times in HBSS and used in experiments. In the antagonist inhibition experiment, we used β1 and β2 adrenoceptor agonist isoprenaline (abcr GmbH) as a positive control causing cAMP elevation. […] The fluorescent ligand solutions of different concentrations in HBSS were premixed with the isoprenaline solution. 50 µL of a final solution was added to each well and the measurement was started upon addition and continued for 1 h in 10 min intervals between the readouts (inclusive).
# The ligands were added using an automated pipette to initiate the sensor response. FRET readout from the cAMP sensor was performed on a multiwell plate reader Spark 20 M (Tecan) at room temperature (25 °C). Fluorescence readout amplitudes were calculated from time series for different ligand concentrations, following background subtraction (media only). […] Data were derived from 3 independent experiments and each independent experiment was performed in triplicate.
# Sensor response R(CFP/FRET) was calculated using (1):1 R(CFP/FRET)=(FimTurquoise−FbkgmTurquoise)/(FiFRET−FbkgFRET) where F i ^mTurquoise – mTurquoise fluorescence intensity in the wells with cells; F bkg ^mTurquoise - mTurquoise fluorescence intensity in the control wells without cells; F i ^FRET – FRET signal intensity in the wells with cells; F bkg ^FRET – FRET signal intensity in the control wells without cells. For every result, R(CFP/FRET) ratio was normalized to the R(CFP/FRET) response of DMSO sample.
# K i ^app were calculated using the Cheng-Prusoff equation (2):2 Kiapp=IC50/[A]/EC50+1 where [A] – concentration of the isoprenaline; IC50 – fitted half maximal inhibitory concentration of labeled antagonist; EC50 – fitted half maximal response concentration of isoprenaline.
# T1 sequence (P07550 whole entry): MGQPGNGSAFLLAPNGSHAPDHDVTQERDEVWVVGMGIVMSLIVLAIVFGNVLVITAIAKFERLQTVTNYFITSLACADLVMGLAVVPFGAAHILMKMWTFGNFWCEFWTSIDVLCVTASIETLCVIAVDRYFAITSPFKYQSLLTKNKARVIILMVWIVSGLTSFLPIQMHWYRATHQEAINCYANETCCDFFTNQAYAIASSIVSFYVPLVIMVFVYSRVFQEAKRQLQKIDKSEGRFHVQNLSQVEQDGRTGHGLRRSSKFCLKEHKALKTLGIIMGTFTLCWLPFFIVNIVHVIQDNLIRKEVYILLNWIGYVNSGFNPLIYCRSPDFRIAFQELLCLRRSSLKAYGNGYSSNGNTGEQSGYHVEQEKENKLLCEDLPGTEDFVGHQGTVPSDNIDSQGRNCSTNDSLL
# Sequence of β1AR (P08588 whole entry): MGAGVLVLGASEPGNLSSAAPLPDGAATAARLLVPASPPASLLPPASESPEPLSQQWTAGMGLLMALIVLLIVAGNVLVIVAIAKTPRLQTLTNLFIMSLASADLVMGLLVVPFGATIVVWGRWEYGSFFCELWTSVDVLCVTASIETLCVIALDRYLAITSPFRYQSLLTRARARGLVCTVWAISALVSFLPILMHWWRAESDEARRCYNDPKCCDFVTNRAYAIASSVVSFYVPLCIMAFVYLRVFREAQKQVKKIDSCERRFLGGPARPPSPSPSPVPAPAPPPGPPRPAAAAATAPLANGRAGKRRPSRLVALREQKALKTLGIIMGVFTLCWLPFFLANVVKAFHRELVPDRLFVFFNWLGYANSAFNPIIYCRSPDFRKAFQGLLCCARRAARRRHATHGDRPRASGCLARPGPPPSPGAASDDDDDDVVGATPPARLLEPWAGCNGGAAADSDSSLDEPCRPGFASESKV
# T2 sequence (P07550 whole entry, the tested form may be a part): as the sequence (P07550 whole entry) above
Compound,binding selectivity β2AR over β1AR (β2AR [1]),Kd (β2AR [1]) [nM],Kd (β1AR) [nM],emission intensity decrease ([2]; at pH 8.0) [%],no-wash imaging staining (β2AR-YFP fusion protein),"IC50 (β2AR [3]; 17 nM isoprenaline, 30 min incubation time, read-out: IC50) [nM]","Ki (β2AR [3]; Cheng-Prusoff from IC50 right after addition of ligands, 17 nM isoprenaline, read-out: Ki app (mean ± SD)) [nM]","IC50 (β2AR [3]; displacement of 17 nM isoprenaline, readout immediately after addition of ligands (0 min), read-out: IC50 (mean ± SD)) [nM]","Ki (β2AR [3]; measurement 30 min after addition of the ligands, read-out: Ki app) [nM]",fluorescence intensity retained relative to maximal ([2]; pH ~7 versus pH ~5)
Cc1c(CCC(=O)NCCOCCOCCNC(=O)CCN(C)C(=O)c2c(F)c(F)c(F)c(F)c2C2=c3cc4c5c(c3Oc3c2cc2c6c3CCCN6C(C)(C)C=C2CS(=O)(=O)O)CCC[N+]=5C(C)(C)C=C4CS(=O)(=O)[O-])cccc1CC(C)(C)NCC(O)c1ccc(O)c2c1OCC(=O)N2 (stereo not drawn) [BI-PEG-KK114 (18)],nine-fold,7.2 ± 0.6,63.4 ± 6.6,30,–,–,–,–,–,–
CN(CCC(=O)NCCOCCOCCOCCOCCC(=O)NCCC(C)(C)NCC(O)COc1cccc2[nH]c3ccccc3c12)C(=O)c1c(F)c(F)c(F)c(F)c1C1=c2cc3c4c(c2Oc2c1cc1c5c2CCCN5C(C)(C)C=C1CS(=O)(=O)O)CCC[N+]=4C(C)(C)C=C3CS(=O)(=O)[O-] (stereo not drawn) [Carazolol-KK114 (24)],three-fold,14.7 ± 0.9,–,–,specific staining,444 ± 79,162 ± 76,2450 ± 494,29.3 ± 15,about 90%
